Here are results for twelve molecules from US8871767B2, “2-arylimidazo[1,2-B]pyridazine, 2-phenylimidazo[1,2-A]pyridine, and 2-phenylimidazo[1,2-A]pyrazine derivatives” (Hengrui (USA) Ltd., priority 2010, dated 2014).

The test system of test [1] is Hedgehog pathway activation on 10T1/2/Smo#3 cells (C3H10T1/2 cells transfected with human Smoothened receptor). Kind of test: Hedgehog pathway activation on 10T1/2/Smo#3 cells measured by ALP activity. It counts as cell-based. In outline: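 C3H10T1/2 cells stably expressing human Smoothened were activated with hShh-conditioned medium (10-20%) or 500 nM SAG, with test compounds present. Pathway block read as inhibited ALP activity (4-methylumbelliferyl phosphate fluorescence); viability checked by CellTiter-Blue. IC50 values reported.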

Test [2] has as its system Hedgehog pathway activation (GLi-luciferase reporter) in Shh Light II reporter cells. In words: Hedgehog pathway activation on Shh Light II reporter cells measured by luciferase activity. Type of test: cell-based. In outline:
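Shh Light II reporter cells carrying a hedgehog-responsive GLi-luciferase reporter were stimulated either with 500 nM SAG, a direct Smoothened agonist, or with conditioned media containing human Sonic Hedgehog (hShh). Test compounds were evaluated for blocking this pathway activation, quantified by luciferase activity. Cell viability was monitored in parallel with the Celltiter-Blue® assay.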

Setting [3] is: Mus musculus, C3H 10T1/2, 10T1/2/Smo#3 cells, measured by ALP activity, read-out: ALP (IC50, inhibition of Hedgehog pathway activation).
Where [4] appears, read: Mus musculus, Shh Light II, hShh activation, read-out: Shh (IC50, inhibition of Hedgehog pathway activation).
Setting [5] is: Mus musculus, C3H 10T1/2, 10T1/2/Smo#3 cells, hShh activation, ALP activity, read-out: 10T1/2/Smo#3 ALP activity (hShh Activation).
[6] abbreviates: Mus musculus, Shh Light II, SAG activation (500 nM SAG), read-out: Shh Light II luciferase activity (SAG activation).
Where [7] appears, read: Mus musculus, Shh Light II, hShh activation, read-out: Shh Light II luciferase activity (hShh activation).

Each structure is given as a SMILES string. Like-named read-outs stand apart in the source and are kept apart here. A value given as a limit tells only on which side of the number the result lay.

For the molecule `CN(C)c1ccc2nc(-c3ccc(C(F)(F)F)c(NC(=O)C(C)(C)C)c3)cn2n1` [Example 138, N-(5-(6-(dimethylamino)imidazo[1,2-b]pyridazin-2-yl)-2-(trifluoromethyl)phenyl)pivalamide], the IC50 is 2170 nM in test [1] (setting [3]) and 3450 nM in test [2] (setting [4]).
For `Cc1ccc(-c2ccc3nc(-c4ccc(C(F)(F)F)c(NC(=O)C(C)(C)C)c4)cn3n2)cc1` [Example 239, N-(5-(6-p-tolylimidazo[1,2-b]pyridazin-2-yl)-2-(trifluoromethyl)phenyl)pivalamide] the same measures were 335 nM and 523 nM.
For `Cc1ccc(-c2cn3nc(-c4cccc(C(F)(F)F)c4)ccc3n2)cc1NC(=O)C(C)(C)C` [Example 260, N-(2-methyl-5-(6-(3-(trifluoromethyl)phenyl)imidazo[1,2-b]pyridazin-2-yl)phenyl)pivalamide] the same measures were 325 nM and 297 nM.
On to `Cc1ccc(-c2cn3nc(-c4ccc(F)cc4C(F)(F)F)ccc3n2)cc1NC(=O)C(C)(C)C` [Example 396, N-(5-(6-(4-fluoro-2-(trifluoromethyl)phenyl)imidazo[1,2-b]pyridazin-2-yl)-2-methylphenyl)pivalamide], for which the results for the IC50 in test [1] (setting [3]) and in test [2] (setting [4]) were 82 nM and 31 nM, respectively.
Take `CNC1CCN(c2ccc3nc(-c4ccc(C)c(NC(=O)C(C)(C)C)c4)cn3n2)C1` (stereo not drawn) [Example 360, N-(2-methyl-5-(6-(3-(methylamino)pyrrolidin-1-yl)imidazo[1,2-b]pyridazin-2-yl)phenyl)pivalamide]: the IC50 in test [1] (10T1/2/Smo#3 cells, measured by ALP activity, read-out: ALP (IC50, inhibition of Hedgehog pathway activation)) was 32 nM; in test [2] (hShh activation, read-out: Shh (IC50, inhibition of Hedgehog pathway activation)) it was 26 nM.
In the case of `CC(C)(C)C(=O)Nc1cc(-c2cn3nc(-c4ccc(O)cc4)ccc3n2)ccc1C(F)(F)F` [Example 243, N-(5-(6-(4-hydroxyphenyl)imidazo[1,2-b]pyridazin-2-yl)-2-(trifluoromethyl)phenyl)pivalamide], the IC50 in test [1] (setting [3]) was found to be 295 nM; in test [2] (setting [4]), 306 nM.
`Cc1ccc(-c2cn3nc(C4CC4)ccc3n2)cc1NC(=O)C(C)(C)C` [Example 127, N-(5-(6-cyclopropylimidazo[1,2-b]pyridazin-2-yl)-2-methylphenyl)pivalamide]: the IC50 in test [1] (setting [5]) is less than 300 nM; in test [1] (setting [3]), 110 nM; in test [2] (setting [6]) it was 300 to 3000 nM; in test [2] (setting [4]), 4970 nM; in test [2] (setting [7]), 300 to 3000 nM.
Consider `CCOC(=O)CCCOc1cccc(-c2ccc3nc(-c4ccc(C)c(NC(=O)C(C)(C)C)c4)cn3n2)c1C(F)(F)F` [Example 426, ethyl 4-(3-(2-(4-methyl-3-pivalamidophenyl)imidazo[1,2-b]pyridazin-6-yl)-2-(trifluoromethyl)phenoxy)butanoate], for which the IC50 in test [1] (setting [3]) worked out at 707 nM; in test [2] (setting [4]), 170 nM.
As to `CC(C)(C)C(=O)Nc1cc(-c2cn3nc(-c4ccccc4OC(F)(F)F)ccc3n2)ccc1C(F)(F)F` [Example 240, N-(5-(6-(2-(trifluoromethoxy)phenyl)imidazo[1,2-b]pyridazin-2-yl)-2-(trifluoromethyl)phenyl)pivalamide], the IC50 turned out to be 70 nM in test [1] (setting [3]) and 326 nM in test [2] (setting [4]).
For `Cc1ccc(-c2cn3nc(-c4cc(Cl)ccc4F)ccc3n2)cc1NC(=O)C(C)(C)C` [Example 262, N-(5-(6-(5-chloro-2-fluorophenyl)imidazo[1,2-b]pyridazin-2-yl)-2-methylphenyl)pivalamide] the same measures were 103 nM and 342 nM.
For `CCOC(=O)CCCCOc1ccc(-c2ccc3nc(-c4ccc(C)c(NC(=O)C(C)(C)C)c4)cn3n2)c(C(F)(F)F)c1` [Example 427, ethyl 5-(4-(2-(4-methyl-3-pivalamidophenyl)imidazo[1,2-b]pyridazin-6-yl)-3-(trifluoromethyl)phenoxy)pentanoate] the same measures were 176 nM and 27 nM.
As to `Cc1ccc(-c2cn3nc(NC(=O)c4cccc(C=CC(=O)NO)c4)ccc3n2)cc1NC(=O)C(C)(C)C` [compound 605], the IC50 was less than 300 nM in test [1] (setting [5]); 62 nM in test [1] (setting [3]); less than 300 nM in test [2] (setting [6]); 30 nM in test [2] (setting [4]); less than 300 nM in test [2] (setting [7]).
